# Experimental data from patent publication US4260745A, “3-Halo cephalosporins” (Eli Lilly and Company, priority 1979, dated 1981).
# Read-outs that look alike come from different tables or passages of the source.
# What was measured:
# Format in all cases: cell-based
# [1] = test system: Methicillin resistant Staphylococcus; test: Gradient Plate technique, MIC; conditions: Staphylococcus; Clinical Isolate X400 (methicillin resistant); No Serum; read-out: Minimum Inhibitory Concentration
# [2] = test system: Pseudomonas solanacearcum; test: standard disc-plate method, zone of inhibition; parameters: key to Zone of Inhibition (diameter in mm): --: A dash indicates no observed zone of inhibition; hazy zone; conditions: Table IV
# Text: (§1) The in vitro antimicrobial activity of the 3-halo cephalosporins is illustrated by the data in the following tables. Table I contains the antimicrobial activity for 7-[2-(2-thienyl)acetamido]-3-chloro-3-cephem-4-carboxylic acid obtained in the standard Disc-plate method. The numerical values are the diameter in millimeters of the zones of inhibition observed with the named organisms.
# (§2) In Table IV below, the in vitro antimicrobial activity of 7-[2-(2-thienyl)acetamido]-3-bromo-3-cephem-4-carboxylic acid is presented for several illustrative microorganisms. The data presented were obtained in the standard disc-plate method with the numerical values recording the diameter in millimeters of the zones of inhibition observed with the named microorganisms.
# Salmonella gallinarum = test: standard disc-plate method, zone of inhibition; parameters: key to Zone of Inhibition (diameter in mm): --: A dash indicates no observed zone of inhibition; hazy zone; conditions: Table IV
# Text: as §1, §2
# Mycobacterium avium = test: standard disc-plate method, zone of inhibition; conditions: Table IV, read-out: Zone of Inhibition (diameter in mm)
# Text: as §1, §2
# Sarcina lutea = test: standard disc-plate method, zone of inhibition; conditions: Micrococcus luteus, Table IV, read-out: Zone of Inhibition (diameter in mm)
# Text: as §1, §2
# Bacillus subtilis = test: standard disc-plate method, zone of inhibition; conditions: Table IV, read-out: Zone of Inhibition (diameter in mm); for zone of inhibition at 10 µg/mL: 0.01 mg./ml.; for zone of inhibition at 100 µg/mL: 0.1 mg./ml.; for zone of inhibition at 1000 µg/mL: 1.0 mg./ml.
# Text: as §1, §2
# Proteus vulgaris = test: standard disc-plate method, zone of inhibition; conditions: Table IV, read-out: Zone of Inhibition (diameter in mm)
# Text: as §1, §2
# Klebsiella pneumoniae [3] = test: standard disc-plate method, zone of inhibition; conditions: Table IV, read-out: Zone of Inhibition (diameter in mm)
# Text: as §1, §2
# Escherichia coli [4] = test: standard disc-plate method, zone of inhibition; conditions: Table IV, read-out: Zone of Inhibition (diameter in mm); for zone of inhibition at 100 µg/mL: 0.1 mg./ml.; for zone of inhibition at 1000 µg/mL: 1.0 mg./ml.
# Text: as §1, §2
# Staphylococcus aureus = test: standard disc-plate method, zone of inhibition; conditions: Table IV, read-out: Zone of Inhibition (diameter in mm)
# Text: as §1, §2
# [5] = test system: Saccharomyces pastorianus; test: standard disc-plate method, zone of inhibition; parameters: key: --: A dash indicates no observed zone of inhibition; hazy zone; conditions: Table IV
# Text: as §2
# Pseudomonas aeruginosa [6] = test: standard disc-plate method, zone of inhibition; parameters: key: --: A dash indicates no observed zone of inhibition; hazy zone; conditions: Table IV
# Text: as §2
# [7] = test system: Trichophyton mentagrophytes; test: standard disc-plate method, zone of inhibition; parameters: key: --: A dash indicates no observed zone of inhibition; hazy zone; conditions: Table IV
# Text: as §2
# Candida albicans = test: standard disc-plate method, zone of inhibition; parameters: key: --: A dash indicates no observed zone of inhibition; hazy zone; conditions: Table IV
# Text: as §2
# Neurospora sp. = test: standard disc-plate method, zone of inhibition; parameters: key: --: A dash indicates no observed zone of inhibition; hazy zone; conditions: Table IV
# Text: as §2
# Serratia marcescens [8] = test: standard disc-plate method, zone of inhibition; parameters: key: --: A dash indicates no observed zone of inhibition; hazy zone; conditions: Table IV
# Text: as §2
# Salmonella heidelberg = test: Gradient Plate technique, MIC; conditions: Salmonella enterica, read-out: Minimum Inhibitory Concentration
# Text: (§3) The following Table II lists the minimum inhibitory concentration (MIC) for 7-[2-(2-thienyl)acetamido]-3-chloro-3-cephem-4-carboxylic acid against penicillin resistant Staphylococcus both in the presence of and absence of serum. The MIC values were obtained by the Gradient Plate technique carried out essentially as described by Bryson and Szybalski, Science, 116, 45 (1952).
# (§4) In Table III, below, the MIC values for the test compound of Tables I and II against representative gram-negative organisms is presented. The data were obtained by the Gradient Plate technique.
# (§5) The minimum inhibitory concentrations for 7-[2-(2-thienyl)acetamido]-3-bromo-3-cephem-4-carboxylic acid against representative gram-negative bacteria is presented in Table VI. The data were obtained by the Gradient Plate Method.
# (§6) Tables VII and VIII list the minimum inhibitory concentrations of the test compound effective against representative penicillin resistant Staphylococcus strains, while […] the MIC values obtained against representative gram-negative microorganisms. The data were obtained by the Gradient Plate method.
# Pseudomonas aeruginosa [9] = test: Gradient Plate technique, MIC; conditions: read-out: Minimum Inhibitory Concentration
# Text: as §3, §4, §5, §6
# Shigella sp. = test: Gradient Plate technique, MIC; conditions: read-out: Minimum Inhibitory Concentration
# Text: as §3, §4, §5, §6
# Aerobacter aerogenes = test: Gradient Plate technique, MIC; conditions: Klebsiella aerogenes, read-out: Minimum Inhibitory Concentration
# Text: as §3, §4, §5, §6
# Klebsiella pneumoniae [10] = test: Gradient Plate technique, MIC; conditions: read-out: Minimum Inhibitory Concentration
# Text: as §3, §4, §5, §6
# Escherichia coli [11] = test: Gradient Plate technique, MIC; conditions: read-out: Minimum Inhibitory Concentration
# Text: as §3, §4, §5, §6
# Serratia marcescens [12] = test: Gradient Plate technique, MIC; conditions: read-out: Minimum Inhibitory Concentration
# Text: as §3, §4, §5, §6
smiles,measurement,setting,value
O=C(Cc1cccs1)NC1C(=O)N2C(C(=O)O)=C(Br)CS[C@H]12 (stereo partly shown) [7-[2-(2-Thienyl)acetamido]-3-bromo-3-cephem-4-carboxylic acid],MIC,[1],> 20 µg/mL
same,Zone of Inhibition (diameter in mm),[2]; 0.01 mg./ml.,--
same,zone of inhibition at 100 µg/mL,"[2]; Pseudomonas, 0.1 mg./ml., hazy zone (h), read-out: Zone of Inhibition (diameter in mm)",20 mm
same,zone of inhibition at 1000 µg/mL,"[2]; Pseudomonas, 1.0 mg./ml., read-out: Zone of Inhibition (diameter in mm)",31 mm
same,Zone of Inhibition (diameter in mm),Salmonella gallinarum; 0.01 mg./ml.,--
same,zone of inhibition at 100 µg/mL,"Salmonella gallinarum; Salmonella enterica, GALLINARUM, 0.1 mg./ml., read-out: Zone of Inhibition (diameter in mm)",15 mm
same,zone of inhibition at 1000 µg/mL,"Salmonella gallinarum; Salmonella enterica, GALLINARUM, 1.0 mg./ml., read-out: Zone of Inhibition (diameter in mm)",30 mm
same,zone of inhibition at 10 µg/mL,"Mycobacterium avium; 0.01 mg./ml., hazy zone (h)",33 mm
same,zone of inhibition at 100 µg/mL,"Mycobacterium avium; 0.1 mg./ml., hazy zone (h)",42 mm
same,zone of inhibition at 1000 µg/mL,Mycobacterium avium; 1.0 mg./ml.,23 mm
same,zone of inhibition at 10 µg/mL,Sarcina lutea; 0.01 mg./ml.,17 mm
same,zone of inhibition at 100 µg/mL,Sarcina lutea; 0.1 mg./ml.,33 mm
same,zone of inhibition at 1000 µg/mL,Sarcina lutea; 1.0 mg./ml.,32 mm
same,zone of inhibition at 10 µg/mL,Bacillus subtilis; Synthetic medium,43 mm
same,zone of inhibition at 10 µg/mL,Bacillus subtilis,23 mm
same,zone of inhibition at 100 µg/mL,Bacillus subtilis; Synthetic medium,50 mm
same,zone of inhibition at 100 µg/mL,Bacillus subtilis,38 mm
same,zone of inhibition at 1000 µg/mL,Bacillus subtilis; Synthetic medium,60 mm
same,zone of inhibition at 1000 µg/mL,Bacillus subtilis,37 mm
same,zone of inhibition at 10 µg/mL,"Proteus vulgaris; 0.01 mg./ml., hazy zone (h)",11 mm
same,zone of inhibition at 100 µg/mL,Proteus vulgaris; 0.1 mg./ml.,20 mm
same,zone of inhibition at 1000 µg/mL,Proteus vulgaris; 1.0 mg./ml.,28 mm
same,zone of inhibition at 10 µg/mL,Klebsiella pneumoniae [3]; 0.01 mg./ml.,11 mm
same,zone of inhibition at 100 µg/mL,Klebsiella pneumoniae [3]; 0.1 mg./ml.,19 mm
same,zone of inhibition at 1000 µg/mL,Klebsiella pneumoniae [3]; 1.0 mg./ml.,28 mm
same,zone of inhibition at 10 µg/mL,"Escherichia coli [4]; 0.01 mg./ml., Synthetic medium, hazy zone (h)",11 mm
same,zone of inhibition at 100 µg/mL,Escherichia coli [4]; Synthetic medium,18 mm
same,zone of inhibition at 100 µg/mL,Escherichia coli [4],14 mm
same,zone of inhibition at 1000 µg/mL,Escherichia coli [4]; Synthetic medium,27 mm
same,zone of inhibition at 1000 µg/mL,Escherichia coli [4],23 mm
same,zone of inhibition at 10 µg/mL,Staphylococcus aureus; 0.01 mg./ml.,22 mm
same,zone of inhibition at 100 µg/mL,Staphylococcus aureus; 0.1 mg./ml.,25 mm
same,zone of inhibition at 1000 µg/mL,Staphylococcus aureus; 1.0 mg./ml.,27 mm
same,Zone of Inhibition (diameter in mm),[5]; 0.01 mg./ml.,--
same,Zone of Inhibition (diameter in mm),[5]; 0.1 mg./ml.,--
same,Zone of Inhibition (diameter in mm),[5]; 1.0 mg./ml.,--
same,Zone of Inhibition (diameter in mm),Pseudomonas aeruginosa [6]; 0.01 mg./ml.,--
same,Zone of Inhibition (diameter in mm),Pseudomonas aeruginosa [6]; 0.1 mg./ml.,--
same,Zone of Inhibition (diameter in mm),Pseudomonas aeruginosa [6]; 1.0 mg./ml.,--
same,Zone of Inhibition (diameter in mm),[7]; 0.01 mg./ml.,--
same,Zone of Inhibition (diameter in mm),[7]; 0.1 mg./ml.,--
same,Zone of Inhibition (diameter in mm),[7]; 1.0 mg./ml.,--
same,Zone of Inhibition (diameter in mm),Candida albicans; 0.01 mg./ml.,--
same,Zone of Inhibition (diameter in mm),Candida albicans; 0.1 mg./ml.,--
same,Zone of Inhibition (diameter in mm),Candida albicans; 1.0 mg./ml.,--
same,Zone of Inhibition (diameter in mm),Neurospora sp.; 0.01 mg./ml.,--
same,Zone of Inhibition (diameter in mm),Neurospora sp.; 0.1 mg./ml.,--
same,Zone of Inhibition (diameter in mm),Neurospora sp.; 1.0 mg./ml.,--
same,Zone of Inhibition (diameter in mm),Serratia marcescens [8]; 0.01 mg./ml.,--
same,Zone of Inhibition (diameter in mm),Serratia marcescens [8]; 0.1 mg./ml.,--
same,Zone of Inhibition (diameter in mm),Serratia marcescens [8]; 1.0 mg./ml.,--
same,MIC,Salmonella heidelberg,1 µg/mL
same,MIC,Pseudomonas aeruginosa [9],> 200 µg/mL
same,MIC,Shigella sp.,19.8 µg/mL
same,MIC,Aerobacter aerogenes,1 µg/mL
same,MIC,Klebsiella pneumoniae [10],1 µg/mL
same,MIC,Escherichia coli [11],20.8 µg/mL
same,MIC,Serratia marcescens [12],> 200 µg/mL
